Measured values as given in article PMC6720511, “Synthesis and biological evaluation of novel N-(piperazin-1-yl)alkyl-1H-dibenzo[a,c]carbazole derivatives of dehydroabietic acid as potential MEK inhibitors” (Journal of Enzyme Inhibition and Medicinal Chemistry, 2019).

Assays:
[1] = biological target: T1, MEK1 (Homo sapiens, UniProt Q02750); experiment: In vitro MEK1 inhibition assay (ADP-Glo kinase assay); assay type: biochemical; details: recombinant GST-MEK1, GST-ERK2, 10 µM ATP, mean value ± SD; read-out: MEK1 inhibitory activity IC50 value
T1 construct: purchased Carna Biosciences, Japan
T1 sequence (Q02750 whole entry): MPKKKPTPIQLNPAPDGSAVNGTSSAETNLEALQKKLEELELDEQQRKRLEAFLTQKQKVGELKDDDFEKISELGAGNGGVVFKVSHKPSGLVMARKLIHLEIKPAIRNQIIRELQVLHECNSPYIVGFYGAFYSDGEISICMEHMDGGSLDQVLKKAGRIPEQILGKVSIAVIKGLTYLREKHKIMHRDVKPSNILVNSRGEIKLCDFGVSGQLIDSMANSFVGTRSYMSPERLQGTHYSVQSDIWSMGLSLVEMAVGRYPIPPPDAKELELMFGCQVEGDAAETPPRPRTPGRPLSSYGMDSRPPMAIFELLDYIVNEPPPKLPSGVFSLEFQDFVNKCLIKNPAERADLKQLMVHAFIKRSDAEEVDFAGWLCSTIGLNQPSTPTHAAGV
Description: An in vitro kinase assay of MEK1 was performed using ADP-Glo kinase assay (Promega, Madison, WI, USA) according to the manufacturer’s protocol. […] Reactions were stopped by adding 5 µL of ADP-Glo reagent to each well. After incubating at 22 °C for 40 min, 10 µL of the kinase detection reagent was added and the plates were incubated for another 30 min at 22 °C in the dark. The reaction mixture was analysed by EnSpire (PerkinElmer, Waltham, MA, USA). U0126 was used as the positive control for MEK1 inhibition.

[2] = tested on: HepG2 cells; experiment: Lactate dehydrogenase (LDH) leakage assay; assay type: cell-based, human; details: HepG2, 5 µM, 24 h
Description: The cell membrane integrity was determined by LDH leakage assay by using a LDH assay kit (Beyotime, China). In brief, HepG2 cells were plated on 96-well plates at the density of 5 × 10^3 cells per well and allowed to attach overnight. After being incubated with compound 10g for 24 h, the supernatants were collected and centrifuged at the speed of 1000 rpm and were subjected to LDH detection as the description in the manual. The absorbance at 490 nm was measured by a Cytation 3 Cell Imaging Multi-Mode Reader (BioTek Instruments, Inc., Winooski, VT, USA).

[3] = tested on: HepG2 cells; experiment: Western blot of oncosis and apoptosis markers; assay type: cell-based, human
Description: (§1) HepG2 cells were seeded at a density of 5 × 10^6 cells per well and attached for 8 h, and then treated with different concentrations of compound 10g for 48 h. After the treatment, the cells were harvested and washed twice with PBS. The harvested cells were lysed with radio-immunoprecipitation assay (RIPA) lysis buffer (Beyotime Biotech., Nantong, China) with 1% cocktail (Sigma-Aldrich, USA). Whole-cell protein lysates were prepared and centrifuged at 12,000 rpm for 10 min at 4 °C. The total proteins were determined using Bradford reagent (Bio-Rad Laboratories, Inc., USA). Exactly 40 µg of protein per lane was separated through sodium dodecyl sulfate-polyacrylamide gel electrophoresis and then transferred onto a polyvinylidene difluoride membrane (Millipore, Bedford, MA, USA). The membranes were incubated with each antibody and detected through immunoblot analysis. All of the antibodies were purchased from Cell signaling Technology, Inc. (Boston, MA, USA) and diluted in accordance with the manufacturer’s instruction. Proteins were visualized using a C-Digit® imaging system (LI-COR Biosciences, Lincoln, NE, USA).

[4] = tested on: HepG2 cells; experiment: Annexin V-FITC/PI dual staining assay; assay type: cell-based, human; details: HepG2, 2 µM (as printed in text), 48 h
Description: The extent of apoptosis was quantitatively measured using Annexin V-FITC/PI dual staining assay. HepG2 cells were seeded into a six-well plate at 5 × 10^5 cells per well in 10% foetal calf serum (FBS)-DMEM into six-well plates and treated with different concentrations of the indicated compound 10g for 48 h. The cells were detached with 0.25% trypsin, washed with ice-cold PBS for twice and then resuspended in 1 × Binding buffer (0.1 M Hepes/NaOH (pH 7.4), 1.4 M NaCl, 25 mM CaCl2). The cells were stained with 5 µL of Annexin V-FITC and 5 µL of PI (propidium iodide) to each tube. The cells were gently vortexed and incubated in the dark at room temperature for 15 min and then keep them at 4 °C. The samples were analysed by a flow cytometer (Becton-Dickinson FACSCalibur, NJ, USA) and data were analysed using the FlowJo software (Becton-Dickinson & Co, Totowa, NJ, USA).

[5] = Cell death inhibition assay; assay type: cell-based, human; details: human, HepG2 cells, 10g alone, 10 µM, read-out: relative cell viability of HepG2 cells
Description: Figure 6. Compound 10g induced oncosis and apoptosis of HepG2 cells. (a) PD150606 and Z-VAD-FMK partially reversed compound 10g-induced cell death. HepG2 cells were incubated with PD150606, Z-VAD-FMK or Necrostatin-1 at indicated concentration for 24 h alone or in combination with compound 10g at indicated concentration for 24 h. (b) Compound 10g induced the degradation of α-tubulin and β-actin, and activated oncosis marker calpain-1 autolysis from the 80 kDa event to 76 kDa event in western blot analysis. *, p < 0.01; **, p < 0.01; #, p < 0.01; &, p < 0.001. (c) Compound 10g induced the upregulation of apoptotic protein Bax, caspase-3, caspase-9 and plasmic cytochrome c levels, and the downregulation of antiapoptotic protein Bcl-2 level. *, p < 0.001; **, p < 0.01; #, p < 0.01; and p < 0.01.

[6] = tested on: HepG2 cells; experiment: Cell cycle analysis (PI staining, flow cytometry); assay type: cell-based, human; details: HepG2, 2 µM (as printed in text), 48 h
Description: Cell cycle distributions in HepG2 cells were determined through propidium iodide (PI) staining and analysed by flow cytometry. HepG2 cells were seeded into a six-well plate at 5 × 10^5 cell/mL and treated with different concentrations of compound 10g for 48 h. After treatment, cells were detached with 0.25% trypsin, harvested by centrifugation, washed twice with ice-cold PBS and then fixed and permeabilised with ice-cold 70% ethanol at 4 °C overnight. Ethanol was removed and the cells were washed twice with ice-cold PBS. After this, the cells were treated with 100 µL of RNase (100 µg/mL) at 37 °C for 30 min, followed by incubation with 400 µl of DNA staining solution (PI) (1 mg/mL) in the dark at 4 °C for 30 min. The samples were analyzed by a flow cytometer (Becton-Dickinson FACSCalibur, NJ, USA) and data were analysed using the FlowJo software (Becton-Dickinson & Co, Totowa, NJ, USA).

[7] = tested on: HepG2 cells; experiment: Mitochondrial membrane potential assay (JC-1); assay type: cell-based, human
Description: The JC-1 mitochondrial membrane potential assay kit (Keygene Biotech., China) was employed to measure mitochondrial depolarization in HepG2 cells. Briefly, cells cultured in six-well plates after indicated treatments were incubated with an equal volume of JC-1 staining solution (5 µg/mL) at 37 °C for 20 min and rinsed twice with PBS. Mitochondrial membrane potentials were monitored by determining the relative amounts of dual emissions from mitochondrial JC-1 monomers or aggregates using flow cytometry (Becton-Dickinson FACSCalibur, New York, USA). Mitochondrial depolarization is indicated by an increase in the pencentage of cells with low ΔΨm (green fluorescence, lower right quadrant) compared with cells with high ΔΨm (red fluorescence, upper right quadrant).

[8] = tested on: pERK1/2; experiment: Western blot of ERK and pERK in HepG2 cells; assay type: cell-based, human; details: 48 h
Description: as §1

With `CCOc1ccc2c(c1)c1c(n2CCN2CCNCC2)-c2cc(C(C)C)ccc2C2(C)CCCC(C)(C(=O)OC)C12` (centres unmarked) [Compound 10g, 2,3,4,4a,9,13c-Hexahydro-12-ethoxy-7-isopropyl-1,4a-dimethyl-9–(2-(piperazin-1-yl)ethyl)-1H-dibenzo[a,c]carbazole-1-carboxylic acid methyl ester] the IC50 [1] was 110 ± 20 nM, the “relative LDH leakage level” value [2] was 93.03% and the “level of cytochrome c, caspase-3 and caspase-9 (in words)” value [3] was “increased dose-dependently”. The “ratio of Bax/Bcl-2 (in words)” value [3] was “increased significantly”, the “calpain-1 autolysis (in words)” value ([3]; 48 h) was “autolysed from 80 kDa event to 76 kDa event in a dose-dependent manner” and the “level of α-tubulin and β-actin (in words)” value ([3]; dose-dependent) was “significant decrease”. The “percentage of early and late apoptotic cells” value [4] was 60.02%, the viability at 24 h, 10 µM [5] was 1.22% and the G0/G1 phase cells [6] was 55.37%. The “percentage of cells in G2/M phase” value [6] was 20.09%, the “percentage of cells with low ΔΨm (lower right quadrant)” value ([7]; HepG2, 0.2 µM) was 5.29% and the “percentage of cells with low ΔΨm (lower right quadrant)” value ([7]; HepG2, 0.5 µM) was 9.47%. The “percentage of cells with low ΔΨm (lower right quadrant)” value ([7]; HepG2, 1.0 µM) was 15.00%, the “expression level of pERK1/2, % of the control group” value ([8]; 0.1 µM) was 88.8% and the “expression level of pERK1/2, % of the control group” value ([8]; 0.5 µM) was 43.8%. The “expression level of pERK1/2, % of the control group” value ([8]; 1.0 µM) was 34.2% and the “expression levels of ERK1/2 (in words)” value ([8]; 0.1-1.0 µM) was “decreased slightly”.
